The text below walks through data of patent US11999732B2, “P2X3 receptor antagonists” (RECORDATI INDUSTRIA CHIMICA E FARMACEUTICA SPA, priority 2018, dated 2024).

The first test has as its target T1, human P2X3 receptor (Homo sapiens, UniProt P56373).
T1 construct: expressed in transfected cells; host or cells: CHO-K1
T1 sequence (P56373 1-397): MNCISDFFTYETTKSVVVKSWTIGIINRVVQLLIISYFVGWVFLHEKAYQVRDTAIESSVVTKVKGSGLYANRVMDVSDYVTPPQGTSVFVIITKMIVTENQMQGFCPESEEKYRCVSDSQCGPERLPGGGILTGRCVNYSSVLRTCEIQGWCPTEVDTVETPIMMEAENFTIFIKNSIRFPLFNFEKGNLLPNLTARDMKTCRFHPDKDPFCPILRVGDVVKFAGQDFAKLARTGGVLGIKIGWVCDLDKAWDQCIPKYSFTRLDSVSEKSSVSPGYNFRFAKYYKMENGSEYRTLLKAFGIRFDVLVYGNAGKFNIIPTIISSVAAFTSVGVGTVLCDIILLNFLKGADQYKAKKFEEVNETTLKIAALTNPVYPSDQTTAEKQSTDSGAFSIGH
Kind of test: Calcium luminescence (photoprotein) assay in CHO-K1 cells co-expressing human P2X3 receptor, α,β-Met-ATP stimulation, FLEXSTATION readout. Conditions: Table 6; human P2X3 receptor antagonist activity, CHO-K1 cells, α,β-Met-ATP; read-out: h-P2X3 IC50. Format: cell-based. As to the method:
The assay for the human purinergic P2X3 receptor has been adapted to the internal screening instrumentation using the FLEXSTATION as reader and a photoprotein as luminescent readout. The assay consists of CHO-K1 cells recombinantly co-expressing the human P2rx3 receptor and a Ca^2+ sensitive photoprotein. Cells are maintained in DMEM F-12 (1:1) mixture (LONZA cat. no BE04-687F/U1) supplemented with 9 mL of 100 mM Sodium Pyruvate (LONZA cat. no BE13-115E), 29 mL of 7.5% Sodium Bicarbonate (LONZA cat. no: BE17-613E), 5.5 mL of 1 M Hepes (LONZA cat. no BE17-737E), 5 mL of 100× Penicillin/Streptomycin (LONZA cat. no DE17-602E) and 50 mL of Fetal Bovine Serum (Sigma cat. no F7524), 1 mg/mL G418 (Sigma cat. no G8168) and 5 µg/ml puromycin (Sigma cat. no P9620). Standard propagation conditions consist of seeding in a P75 flask twice a week, recovering about 20×10^6 cells, corresponding to about 80% confluency. Cells were seeded into black-walled clear bottom 96 well plates at a density of 40000 cells/well in a Tyrode's buffer (Standard Tyrode's buffer: in house solution, 130 mM NaCl, 5 mM KCl, 2 mM CaCl2, 5 mM NaHCO3, 1 mM MgCl2, 20 mM HEPES, pH 7.4). After 24 h the culture medium was replaced with 200 μL/well of coelenterazine in Tyrode's buffer (Coelenterazine: from BIOSYNTH (cat. no C-7001). 10 mM stock solution was prepared in DMSO and glutathione and stored at −20° C.). The plates were incubated for 4 hours at 37° C., and injected with 10 μL/well of test compounds at 25× concentration in Tyrode's buffer. After 4 minutes a second injection of 50 μL/well of 5× α,β-Met-ATP in Tyrode's buffer (α,β-Met-ATP: from Tocris (cat. no 3209), was dissolved at 100 mM in water and stored in aliquots at −20° C.) was performed and the signal of the emitted luminescence was recorded by FLEXSTATION III (Molecular Devices).
The inhibition curves of the tested compounds at cloned P2X3 receptor were determined by nonlinear regression analysis using software Prism 4.0 (Graphpad, San Diego, Calif.). The IC50 values and pseudo-Hill slope coefficients were estimated by the program.
As to `COc1cc(CN2C(=O)N3CC(C(C)C)N=C3c3ncc(N4CCC(N)CC4)cc32)cc(OC)c1` (centres unmarked) [Example 42, 8-(4-aminopiperidin-1-yl)-6-(3,5-dimethoxybenzyl)-2-(propan-2-yl)-2,6-dihydroimidazo[1,2-c]pyrido[2,3-e]pyrimidin-5(3H)-one], the IC50 worked out at 189 nM.

`CC(C)C1CN2C(=O)N(Cc3ccc(Cl)cc3)c3cc(N4CCC(O)CC4)cnc3C2=N1` (centres unmarked) [Example 51, 6-(4-chlorobenzyl)-8-(4-hydroxypiperidin-1-yl)-2-(propan-2-yl)-2,6-dihydroimidazo[1,2-c]pyrido[2,3-e]pyrimidin-5(3H)-one]: the IC50 was found to be 731 nM.

Regarding `COc1cc(CN2C(=O)N3CC(C(C)C)N=C3c3ncc(C(=O)NC4CCOCC4)cc32)cc(OC)c1` (centres unmarked) [Example 58, 6-(3,5-dimethoxybenzyl)-5-oxo-2-(propan-2-yl)-n-(tetrahydro-2H-pyran-4-yl)-2,3,5,6-tetrahydroimidazo[1,2-c]pyrido[2,3-e]pyrimidine-8-carboxamide], the IC50 is 9200 nM.

As to `COCCC1CN2C(=O)N(Cc3ccc(OC)cc3)c3cc(N4CCOCC4)cnc3C2=N1` (centres unmarked) [Example 65, 6-(4-methoxybenzyl)-2-(2-methoxyethyl)-8-(morpholin-4-yl)-2,6-dihydroimidazo[1,2-c]pyrido[2,3-e]pyrimidin-5(3H)-one], the IC50 stood at 1790 nM.

For the molecule `COc1ccc(CN2C(=O)N3C(=NCC3C3CCCCC3)c3ncc(N4CCOCC4)cc32)cc1` (centres unmarked) [Example 24, 3-cyclohexyl-6-(4-methoxybenzyl)-8-(morpholin-4-yl)-2,6-dihydroimidazo[1,2-c]pyrido[2,3-e]pyrimidin-5(3H)-one], the IC50 came out at 515 nM.

Regarding `COCC1CN=C2c3ncc(N4CCOCC4)cc3N(Cc3ccc(Cl)cc3)C(=O)N21` (centres unmarked) [Example 13, 6-(4-chlorobenzyl)-3-(methoxymethyl)-8-(morpholin-4-y1)-2,6-dihydroimidazo[1,2-c]pyrido[2,3-e]pyrimidin-5(3H)-one], the IC50 was found to be 1260 nM.

`O=C1N(Cc2ccc(Cl)cc2)c2cc(N3CCOCC3)cnc2C2=NCC(C3CCCCC3)N12` (centres unmarked) [Example 26, 6-(4-chlorobenzyl)-3-cyclohexyl-8-(morpholin-4-yl)-2,6-dihydroimidazo[1,2-c]pyrido[2,3-e]pyrimidin-5(3H)-one]: the IC50 amounted to 469 nM.

`O=C1N2CC(CC3CCCCC3)N=C2c2ncc(N3CCOCC3)cc2N1Cc1ccc(Cl)cc1` (centres unmarked) [Example 61, 6-(4-chlorobenzyl)-2-(cyclohexylmethyl)-8-(morpholin-4-yl)-2,6-dihydroimidazo[1,2-c]pyrido[2,3-e]pyrimidin-5(3H)-one]: the IC50 was found to be 1080 nM.

Consider `COc1ccc(CN2C(=O)N3CC(C(C)C)N=C3c3ncc(N4CC5(COC5)C4)cc32)cc1` (centres unmarked) [Example 19, 6-(4-methoxybenzyl)-8-(2-oxa-6-azaspiro[3.3]heptan-6-yl)-2-(propan-2-yl)-2,6-dihydroimidazo[1,2-c]pyrido[2,3-e]pyrimidin-5(3H)-one], for which the IC50 worked out at 5510 nM.

Take `COc1ccc(CN2C(=O)N3CC(CC(F)(F)F)N=C3c3ncc(N4CCOCC4)cc32)cc1` (centres unmarked) [Example 56, 6-(4-methoxybenzyl)-8-(morpholin-4-y1)-2-(2,2,2-trifluoroethyl)-2,6-dihydroimidazo[1,2-c]pyrido[2,3-e]pyrimidin-5(3H)-one]: the IC50 was determined as 345 nM.

Consider `COc1ccc(CN2C(=O)N3CC(C4CCC4)N=C3c3ncc(N4CCOCC4)cc32)cc1` (centres unmarked) [Example 33, 2-cyclobutyl-6-(4-methoxybenzyl)-8-(morpholin-4-yl)-2,6-dihydroimidazo[1,2-c]pyrido[2,3-e]pyrimidin-5(3H)-one], for which the IC50 amounted to 219 nM.

The same test, now with this note: Table 7; human P2X3 receptor antagonist activity, CHO-K1 cells, α,β-Met-ATP; read-out: h-P2X3 IC50.
As for `Cc1ncccc1Cc1nnc2c3ncc(N4CCOCC4)cc3n(Cc3ccc(Cl)cc3)c(=O)n12` [Example 106, 6-(4-chlorobenzyl)-3-[(2-methylpyridin-3-yl)methyl]-8-(morpholin-4-yl)pyrido[2,3-e][1,2,4]triazolo[4,3-c]pyrimidin-5(6H)-one], the IC50 is 40.6 nM.

Regarding `COCC1CN(c2cnc3c(c2)n(Cc2cc(OC)cc(OC)c2)c(=O)n2c(C)c(C(C)C)nc32)C1` [Example 88, 6-(3,5-dimethoxybenzyl)-8-[3-(methoxymethyl)azetidin-1-y1]-3-methyl-2-(propan-2-yl)imidazo[1,2-c]pyrido[2,3-e]pyrimidin-5(6H)-one], the IC50 is 53.6 nM.

`COc1cc(Cn2c(=O)n3cc(CC(C)C)nc3c3ncc(N4CCOCC4)cc32)cc(OC)c1` [Example 74, 6-(3,5-dimethoxybenzyl)-2-(2-methylpropyl)-8-(morpholin-4-yl)imidazo[1,2-c]pyrido[2,3-e]pyrimidin-5(6H)-one]: the IC50 was found to be 416 nM.

Regarding `CCc1c(C)nc2c3ncc(NCC4COC4)cc3n(Cc3cc(OC)cc(OC)c3)c(=O)n12` [Example 77, 6-(3,5-dimethoxybenzyl)-3-ethyl-2-methyl-8-{[(oxetan-3-yl)methyl]amino}imidazo[1,2-c]pyrido[2,3-e]pyrimidin-5(6H)-one], the IC50 turned out to be 239 nM.

As for `Cc1c(C(C)C)nc2c3ncc(C(=O)NCCO)cc3n(Cc3ccc(Cl)cc3)c(=O)n12` [Example 95, 6-(4-chlorobenzyl)-n-(2-hydroxyethyl)-3-methyl-5-oxo-2-(propan-2-y1)-5,6-dihydroimidazo[1,2-c]pyrido[2,3-e]pyrimidine-8-carboxamide], the IC50 worked out at 2980 nM.

The test is the same for the next values; noted with them: Table 8; human P2X3 receptor antagonist activity, CHO-K1 cells, α,β-Met-ATP; read-out: h-P2X3 IC50.
Consider `COCC1CN(c2cnc3c(c2)c(Cc2ccc(OC)cc2)nn2c(CC(C)C)nnc32)C1` [Example 124, 6-(4-methoxybenzyl)-8-[3-(methoxymethyl)azetidin-1-yl]-3-(2-methylpropyl)pyrido[2,3-d][1,2,4]triazolo[4,3-b]pyridazine], for which the IC50 turned out to be 2820 nM.

For `CC(C)(C)c1nnc2c3ncc(N4CCC(O)CC4)cc3c(Cc3ccc(Cl)cc3)nn12` [Example 140, 1-[5-tert-butyl-8-(4-chlorobenzyl)-3,4,6,7,13-pentazatricyclo[7.4.0.02,6]trideca-1(9),2,4,7,10,12-hexaen-11-yl]piperidin-4-ol], the IC50 was determined as 309 nM.

Still in this test, the particulars now being: Table 9; human P2X3 receptor antagonist activity, CHO-K1 cells, α,β-Met-ATP; read-out: h-P2X3 IC50.
Regarding `COc1cc(CN2C(=O)N3CC(C)CN=C3c3ncc(N4CCOCC4)cc32)cc(OC)c1` (centres unmarked) [Example 145, 5-(3,5-dimethoxybenzyl)-9-methyl-3-(morpholin-4-yl)-5,8,9,10-tetrahydro-6H-pyrido[2,3-e]pyrimido[1,2-c]pyrimidin-6-one], the IC50 turned out to be 1780 nM.

For `COc1ccc(Cn2c(=O)n3nc(CC(C)C)nc3c3ncc(N4CCOCC4)cc32)cc1` [Example 156, 6-(4-methoxybenzyl)-2-(2-methylpropyl)-8-(morpholin-4-yl)pyrido[2,3-e][1,2,4]triazolo[1,5-c]pyrimidin-5(6H)-one], the IC50 was 608 nM.

Consider `COc1ncc2c(n1)c1nnc(C(C)(C)C)n1c(=O)n2Cc1ccc(Cl)cc1` [Example 168, 3-tert-butyl-6-(4-chlorobenzyl)-9-methoxypyrimido[4,5-e][1,2,4]triazolo[4,3-c]pyrimidin-5(6H)-one], for which the IC50 was determined as 1390 nM.

As for `CC(C)C1C(=O)N=C2c3ncc(N4CCOCC4)cc3N(Cc3ccc(Cl)cc3)C(=O)N21` (centres unmarked) [Example 163, 6-(4-chlorobenzyl)-8-(morpholin-4-yl)-3-(propan-2-yl)imidazo[1,2-c]pyrido[2,3-e]pyrimidine-2,5(3H,6H)-dione], the IC50 was 278 nM.

The test is the same for the next values; noted with them: running text b1263; read-out: inhibition (human P2X3 receptor).
Regarding `COc1ccc(Cn2c(=O)n3c(C(C)(C)C)nnc3c3ncc(N4CCOCC4)cc32)cc1` [Example 96, 3-tert-butyl-6-(4-methoxybenzyl)-8-(morpholin-4-yl)pyrido[2,3-e][1,2,4]triazolo[4,3-c]pyrimidin-5(6H)-one], the IC50 is 20.7 nM.
